In US8952150B2, “Prostaglandin transporter inhibitors and uses thereof” (Albert Einstein College of Medicine of Yeshiva University, priority 2009, dated 2015):

Legend:
[1] = test system: full-thickness wounds; assay: Wound healing: topical application to full-thickness wounds on the back of mice; format: in vivo; settings: 5 mm full-thickness wounds
Experimental: FIG. 1A-1B. Prostaglandin transporter (PGT) inhibitors accelerate wound healing. […] B. Averaged wound areas of 4 mice, each of them had 2 wounds and received topically applied vehicle Veh1 (2% DMSO+2% cremophor in water) on one wound and T26A on the other. On the wounds of a separate group of 4 mice, vehicle Veh2 (2% EtOH) was applied to one wound and 200 μM PGE2 was applied to the other.
Studies were conducted using compound T26A (Table 1). Two full-thickness wounds with diameter of 5 mm were created on the back of mice symmetrically under the shoulder blades. 50 μL vehicle (2% DMSO+2% cremophor in water) was applied to one wound (FIG. 1A, top panel), and that of 2 mM T26A was applied to the other (FIG. 1A, bottom panel), immediately after surgery and every other day afterwards. […] On the wounds of a separate group of 4 mice, vehicle Veh2 (2% EtOH, yellow) was applied to one wound and 200 μM PGE2 (green) was applied to the other. Results were statistically significant (p<0.05, T26A vs. vehicle).

[2] = biological target: rat PGT (Rattus norvegicus (Rat), UniProt Q00910); assay: [3H]PGE2 uptake inhibition in MDCK cells stably transfected with rat PGT (percent inhibition and IC50); format: cell-based; settings: for Inh (% of Ctl) 0.5 μM: 0.5 μM compound; for Inh (% of Ctl) 0.5 μM / Inh (% of Ctl) 1 μM / Inh (% of Ctl) 5 μM / Inh (% of Ctl) 10 μM: inhibition of [3H]PGE2 uptake; for Inh (% of Ctl) 1 μM: 1 μM compound; for Inh (% of Ctl) 5 μM: 5 μM compound; for Inh (% of Ctl) 10 μM: 10 μM compound
Summary of the method: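 Rat PGT-transfected MDCK cells, on day 4 after seeding, took up [3H]PGE2 in Waymouth buffer at room temperature, with compound (EtOH stock diluted in buffer) added immediately before tracer. Intracellular radioactivity counted after lysis; percent inhibition versus vehicle, IC50 by fitting y=m1−m1*(m0/(m2+m0)).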

SMILES	vascularization and blood flow in the wound ([1]; 2 mM T26A applied topically)	wound healing (wound area) ([1]; 50 μL of 2 mM T26A topically immediately after surgery and every other day, 10 day period, vs vehicle (2% DMSO+2% cremophor in water), p<0.05 T26A vs. vehicle)	Inh (% of Ctl) 0.5 μM [2]	IC50 ([2]; [3H]PGE2 uptake, MDCK cells stably transfected with rat PGT) [nM]	Inh (% of Ctl) 1 μM [2]	Inh (% of Ctl) 5 μM [2]	Inh (% of Ctl) 10 μM [2]
[N-]=[N+]=NCCOCCOCCNC(=O)c1ccc(Nc2nc(NCCOCCOCCNC(=O)c3ccccc3)nc(Nc3ccc(O)cc3)n2)cc1 [T26A, reference compound]	increased vascularization and blood flow in the wound	accelerates wound healing	72.65 % of Ctl	378	–	–	–
O=C(O)c1ccc(Nc2nc(NCCOCCOCCNC(=O)c3ccccc3)nc(Nc3ccccc3)n2)cc1 [compound 58]	–	–	–	–	16.25 % of Ctl	41.0 % of Ctl	52.5 % of Ctl
CN(C)C(=O)c1ccc(Nc2nc(NCCOCCOCCNC(=O)c3ccccc3)nc(Nc3ccc(O)cc3)n2)cc1 [compound 15]	–	–	15.0 % of Ctl	–	–	16.6 % of Ctl	–
CCCCCCNc1nc(Nc2ccccc2)nc(Nc2ccc(O)cc2)n1 [compound 55]	–	–	–	–	12.7 % of Ctl	–	26.1 % of Ctl
